ChEMBL document CHEMBL1144846, “Herkinorin analogues with differential beta-arrestin-2 interactions” (J Med Chem, 2008)

Each compound was assayed against T1, Kappa-type opioid receptor (Homo sapiens, UniProt P41145) (assay: Displacement of [125I]IOXY from human recombinant kappa opioid receptor expressed in CHO cells).
Format: cell-based

T1 sequence (P41145 whole entry): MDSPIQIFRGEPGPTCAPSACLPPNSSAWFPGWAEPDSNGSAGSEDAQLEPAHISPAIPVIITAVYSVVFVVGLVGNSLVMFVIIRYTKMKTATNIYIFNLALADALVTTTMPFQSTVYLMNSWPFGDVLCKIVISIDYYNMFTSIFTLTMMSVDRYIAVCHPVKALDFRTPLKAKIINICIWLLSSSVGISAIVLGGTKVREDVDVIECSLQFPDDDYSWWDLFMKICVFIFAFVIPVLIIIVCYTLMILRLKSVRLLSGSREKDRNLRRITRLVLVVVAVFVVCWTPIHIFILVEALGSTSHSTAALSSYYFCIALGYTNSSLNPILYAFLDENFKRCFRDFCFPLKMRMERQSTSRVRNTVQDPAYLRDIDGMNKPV

SMILES	Ki
COC(=O)[C@@H]1C[C@H](OC(=O)c2ccccc2OC)C(=O)[C@H]2[C@@]1(C)CC[C@H]1C(=O)O[C@H](c3ccoc3)C[C@]21C	230 nM
COC(=O)[C@@H]1C[C@H](NS(=O)(=O)c2ccccc2)C(=O)[C@H]2[C@@]1(C)CC[C@H]1C(=O)O[C@H](c3ccoc3)C[C@]21C	1400 nM
COC(=O)[C@@H]1C[C@H](OC(=O)c2cccc3ccccc23)C(=O)[C@H]2[C@@]1(C)CC[C@H]1C(=O)O[C@H](c3ccoc3)C[C@]21C	410 nM
COC(=O)[C@@H]1C[C@H](NC(C)=O)C(=O)[C@H]2[C@@]1(C)CC[C@H]1C(=O)O[C@H](c3ccoc3)C[C@]21C	30 nM
COC(=O)[C@@H]1C[C@H](SC(=O)c2ccccc2)C(=O)[C@H]2[C@@]1(C)CC[C@H]1C(=O)O[C@H](c3ccoc3)C[C@]21C	1410 nM
COC(=O)[C@@H]1C[C@H](NS(C)(=O)=O)C(=O)[C@H]2[C@@]1(C)CC[C@H]1C(=O)O[C@H](c3ccoc3)C[C@]21C	260 nM
COC(=O)[C@@H]1C[C@H](OC(=O)c2cccc([N+](=O)[O-])c2)C(=O)[C@H]2[C@@]1(C)CC[C@H]1C(=O)O[C@H](c3ccoc3)C[C@]21C	800 nM

Species on record: Homo sapiens
Assay: Selectivity for human recombinant kappa opioid receptor over human recombinant delta opioid receptor

SMILES	Ratio Ki
COC(=O)[C@@H]1C[C@H](OC(=O)c2ccccc2Br)C(=O)[C@H]2[C@@]1(C)CC[C@H]1C(=O)O[C@H](c3ccoc3)C[C@]21C	> 100
COC(=O)[C@@H]1C[C@H](OC(=O)c2ccccc2OC)C(=O)[C@H]2[C@@]1(C)CC[C@H]1C(=O)O[C@H](c3ccoc3)C[C@]21C	> 43
COC(=O)[C@@H]1C[C@H](NS(=O)(=O)c2ccccc2)C(=O)[C@H]2[C@@]1(C)CC[C@H]1C(=O)O[C@H](c3ccoc3)C[C@]21C	> 7
COC(=O)[C@@H]1C[C@H](OC(=O)c2cccc3ccccc23)C(=O)[C@H]2[C@@]1(C)CC[C@H]1C(=O)O[C@H](c3ccoc3)C[C@]21C	> 24
COC(=O)[C@@H]1C[C@H](OC(=O)c2cccc(Br)c2)C(=O)[C@H]2[C@@]1(C)CC[C@H]1C(=O)O[C@H](c3ccoc3)C[C@]21C	> 100
COC(=O)[C@@H]1C[C@H](NC(C)=O)C(=O)[C@H]2[C@@]1(C)CC[C@H]1C(=O)O[C@H](c3ccoc3)C[C@]21C	> 330
COC(=O)[C@@H]1C[C@H](SC(=O)c2ccccc2)C(=O)[C@H]2[C@@]1(C)CC[C@H]1C(=O)O[C@H](c3ccoc3)C[C@]21C	1.4
COC(=O)[C@@H]1C[C@H](NS(C)(=O)=O)C(=O)[C@H]2[C@@]1(C)CC[C@H]1C(=O)O[C@H](c3ccoc3)C[C@]21C	> 38
COC(=O)[C@@H]1C[C@H](OC(=O)c2cccc([N+](=O)[O-])c2)C(=O)[C@H]2[C@@]1(C)CC[C@H]1C(=O)O[C@H](c3ccoc3)C[C@]21C	> 12
COC(=O)[C@@H]1C[C@H](OC(=O)c2ccccc2)C(=O)[C@H]2[C@@]1(C)CC[C@H]1C(=O)O[C@H](c3ccoc3)C[C@]21C	12

What follows are compounds tested against T1, Kappa-type opioid receptor (assay: Agonist activity at human recombinant kappa opioid receptor expressed in CHO cells by [35S]GTP-gamma-S binding assay).
Format: functional, cell-based

SMILES	EC50
COC(=O)[C@@H]1C[C@H](NC(C)=O)C(=O)[C@H]2[C@@]1(C)CC[C@H]1C(=O)O[C@H](c3ccoc3)C[C@]21C	120 nM

Species on record: Homo sapiens
Assay: Selectivity for human recombinant kappa opioid receptor over human recombinant mu opioid receptor

SMILES	Ratio Ki
COC(=O)[C@@H]1C[C@H](OC(=O)c2ccccc2Br)C(=O)[C@H]2[C@@]1(C)CC[C@H]1C(=O)O[C@H](c3ccoc3)C[C@]21C	1.2
COC(=O)[C@@H]1C[C@H](OC(=O)c2ccccc2OC)C(=O)[C@H]2[C@@]1(C)CC[C@H]1C(=O)O[C@H](c3ccoc3)C[C@]21C	7
COC(=O)[C@@H]1C[C@H](NS(=O)(=O)c2ccccc2)C(=O)[C@H]2[C@@]1(C)CC[C@H]1C(=O)O[C@H](c3ccoc3)C[C@]21C	> 7
COC(=O)[C@@H]1C[C@H](OC(=O)c2cccc3ccccc23)C(=O)[C@H]2[C@@]1(C)CC[C@H]1C(=O)O[C@H](c3ccoc3)C[C@]21C	> 24
COC(=O)[C@@H]1C[C@H](OC(=O)c2cccc(Br)c2)C(=O)[C@H]2[C@@]1(C)CC[C@H]1C(=O)O[C@H](c3ccoc3)C[C@]21C	1.6
COC(=O)[C@@H]1C[C@H](NC(C)=O)C(=O)[C@H]2[C@@]1(C)CC[C@H]1C(=O)O[C@H](c3ccoc3)C[C@]21C	13
COC(=O)[C@@H]1C[C@H](SC(=O)c2ccccc2)C(=O)[C@H]2[C@@]1(C)CC[C@H]1C(=O)O[C@H](c3ccoc3)C[C@]21C	0.21
COC(=O)[C@@H]1C[C@H](NS(C)(=O)=O)C(=O)[C@H]2[C@@]1(C)CC[C@H]1C(=O)O[C@H](c3ccoc3)C[C@]21C	> 38
COC(=O)[C@@H]1C[C@H](OC(=O)c2cccc([N+](=O)[O-])c2)C(=O)[C@H]2[C@@]1(C)CC[C@H]1C(=O)O[C@H](c3ccoc3)C[C@]21C	> 12
COC(=O)[C@@H]1C[C@H](OC(=O)c2ccccc2)C(=O)[C@H]2[C@@]1(C)CC[C@H]1C(=O)O[C@H](c3ccoc3)C[C@]21C	0.13

What follows are compounds tested against Mu-type opioid receptor (Homo sapiens, UniProt P35372) (assay: Displacement of [125I]IOXY from human recombinant mu opioid receptor expressed in CHO cells).
Format: cell-based

Mu-type opioid receptor, sequence (P35372 whole entry): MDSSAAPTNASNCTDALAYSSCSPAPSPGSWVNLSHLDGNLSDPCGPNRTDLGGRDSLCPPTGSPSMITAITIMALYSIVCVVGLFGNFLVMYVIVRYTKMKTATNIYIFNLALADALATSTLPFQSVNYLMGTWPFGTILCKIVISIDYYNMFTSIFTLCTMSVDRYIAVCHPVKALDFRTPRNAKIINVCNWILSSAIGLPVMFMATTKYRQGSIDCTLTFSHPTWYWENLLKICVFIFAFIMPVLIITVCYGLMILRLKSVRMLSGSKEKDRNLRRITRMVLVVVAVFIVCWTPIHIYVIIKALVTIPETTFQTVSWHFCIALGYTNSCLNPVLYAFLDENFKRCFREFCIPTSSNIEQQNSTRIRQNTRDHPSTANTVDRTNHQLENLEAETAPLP

SMILES	Ki
COC(=O)[C@@H]1C[C@H](O)C(=O)[C@H]2[C@@]1(C)CC[C@H]1C(=O)O[C@H](c3ccoc3)C[C@]21C [SALVINORIN B]	> 10 µM
COC(=O)[C@@H]1C[C@H](OC(=O)c2ccccc2OC)C(=O)[C@H]2[C@@]1(C)CC[C@H]1C(=O)O[C@H](c3ccoc3)C[C@]21C	1.64 µM
COC(=O)[C@@H]1C[C@H](NS(=O)(=O)c2ccccc2)C(=O)[C@H]2[C@@]1(C)CC[C@H]1C(=O)O[C@H](c3ccoc3)C[C@]21C	> 10 µM
COC(=O)[C@@H]1C[C@H](OC(=O)c2cccc3ccccc23)C(=O)[C@H]2[C@@]1(C)CC[C@H]1C(=O)O[C@H](c3ccoc3)C[C@]21C	> 10 µM
COC(=O)[C@@H]1C[C@H](NC(C)=O)C(=O)[C@H]2[C@@]1(C)CC[C@H]1C(=O)O[C@H](c3ccoc3)C[C@]21C	4.18 µM
COC(=O)[C@@H]1C[C@H](SC(=O)c2ccccc2)C(=O)[C@H]2[C@@]1(C)CC[C@H]1C(=O)O[C@H](c3ccoc3)C[C@]21C	0.29 µM
COC(=O)[C@@H]1C[C@H](NS(C)(=O)=O)C(=O)[C@H]2[C@@]1(C)CC[C@H]1C(=O)O[C@H](c3ccoc3)C[C@]21C	> 10 µM
COC(=O)[C@@H]1C[C@H](OC(=O)c2cccc([N+](=O)[O-])c2)C(=O)[C@H]2[C@@]1(C)CC[C@H]1C(=O)O[C@H](c3ccoc3)C[C@]21C	> 10 µM

The compounds below were run against T1, Kappa-type opioid receptor (assay: Agonist activity at human recombinant kappa opioid receptor expressed in CHO cells by [35S]GTPgammaS binding assay relative to (-)-U50,488).
Format: functional, cell-based

SMILES	Emax
COC(=O)[C@@H]1C[C@H](NC(C)=O)C(=O)[C@H]2[C@@]1(C)CC[C@H]1C(=O)O[C@H](c3ccoc3)C[C@]21C	108%

These compounds were tested against Delta-type opioid receptor (Homo sapiens, UniProt P41143) (assay: Displacement of [125I]IOXY from human recombinant delta opioid receptor expressed in CHO cells).
Format: cell-based

Delta-type opioid receptor, sequence (P41143 whole entry): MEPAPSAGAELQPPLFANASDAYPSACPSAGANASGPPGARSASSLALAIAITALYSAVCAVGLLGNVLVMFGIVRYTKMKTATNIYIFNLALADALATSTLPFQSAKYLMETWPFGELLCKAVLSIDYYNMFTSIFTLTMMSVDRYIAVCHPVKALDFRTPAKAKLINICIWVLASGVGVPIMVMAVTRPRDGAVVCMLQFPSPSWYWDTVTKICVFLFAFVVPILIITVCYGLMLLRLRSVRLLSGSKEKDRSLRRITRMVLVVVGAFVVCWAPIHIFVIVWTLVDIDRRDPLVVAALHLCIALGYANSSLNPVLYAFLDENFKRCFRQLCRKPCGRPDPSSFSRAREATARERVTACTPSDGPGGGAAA

SMILES	Ki
COC(=O)[C@@H]1C[C@H](O)C(=O)[C@H]2[C@@]1(C)CC[C@H]1C(=O)O[C@H](c3ccoc3)C[C@]21C [SALVINORIN B]	> 10 µM
COC(=O)[C@@H]1C[C@H](OC(=O)c2ccccc2OC)C(=O)[C@H]2[C@@]1(C)CC[C@H]1C(=O)O[C@H](c3ccoc3)C[C@]21C	> 10 µM
COC(=O)[C@@H]1C[C@H](NS(=O)(=O)c2ccccc2)C(=O)[C@H]2[C@@]1(C)CC[C@H]1C(=O)O[C@H](c3ccoc3)C[C@]21C	> 10 µM
COC(=O)[C@@H]1C[C@H](OC(=O)c2cccc3ccccc23)C(=O)[C@H]2[C@@]1(C)CC[C@H]1C(=O)O[C@H](c3ccoc3)C[C@]21C	> 10 µM
COC(=O)[C@@H]1C[C@H](NC(C)=O)C(=O)[C@H]2[C@@]1(C)CC[C@H]1C(=O)O[C@H](c3ccoc3)C[C@]21C	> 10 µM
COC(=O)[C@@H]1C[C@H](SC(=O)c2ccccc2)C(=O)[C@H]2[C@@]1(C)CC[C@H]1C(=O)O[C@H](c3ccoc3)C[C@]21C	1.93 µM
COC(=O)[C@@H]1C[C@H](NS(C)(=O)=O)C(=O)[C@H]2[C@@]1(C)CC[C@H]1C(=O)O[C@H](c3ccoc3)C[C@]21C	> 10 µM
COC(=O)[C@@H]1C[C@H](OC(=O)c2cccc([N+](=O)[O-])c2)C(=O)[C@H]2[C@@]1(C)CC[C@H]1C(=O)O[C@H](c3ccoc3)C[C@]21C	> 10 µM
